From patent publication US20140135310A1, “SULPHONAMIDE DERIVATIVES OF ALICYCLIC AMINES FOR THE TREATMENT OF CENTRAL NERVOUS SYSTEM DISEASES” (Adamed Sp. z o.o., priority 2011, published 2014)
pKi: −log10 of the molar value.

Experiments:
[1] = target: T1, H1 histaminergic receptors (Homo sapiens, UniProt P35367); experiment: Radioligand binding assay, histaminergic H1 receptors; settings: human recombinant (HEK-293 cells), [3H]pyrilamine 1 nM
T1 construct: expressed in transfected cells; host or cells: HEK-293 cells
T1 sequence (P35367 whole entry): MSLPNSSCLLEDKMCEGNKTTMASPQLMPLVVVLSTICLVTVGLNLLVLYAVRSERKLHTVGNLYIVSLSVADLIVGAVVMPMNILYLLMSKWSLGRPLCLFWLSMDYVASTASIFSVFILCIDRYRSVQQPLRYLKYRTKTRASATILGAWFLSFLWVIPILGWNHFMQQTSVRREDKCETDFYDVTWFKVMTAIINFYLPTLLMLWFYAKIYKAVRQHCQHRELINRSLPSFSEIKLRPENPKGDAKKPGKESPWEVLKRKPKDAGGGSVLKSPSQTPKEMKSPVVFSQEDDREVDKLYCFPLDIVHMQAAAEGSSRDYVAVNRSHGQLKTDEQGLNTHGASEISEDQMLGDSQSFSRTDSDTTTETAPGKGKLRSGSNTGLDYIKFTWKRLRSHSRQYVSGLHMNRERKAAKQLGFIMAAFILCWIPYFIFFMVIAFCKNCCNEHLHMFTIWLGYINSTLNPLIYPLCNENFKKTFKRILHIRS
Outline: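 Competition binding at human H1 receptors; specific binding taken as total minus non-specific binding in excess unlabelled ligand, scintillation read-out. IC50 from Hill-equation fit of competition curves; Ki by Cheng-Prusoff using radioligand concentration and Kd (from Scatchard plot).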

[2] = target: dopaminergic receptors D3 (Homo sapiens, UniProt P35462); experiment: Radioligand binding assay, dopaminergic D3 receptors; settings: test compound 1×10^−6 M
Sequence of dopaminergic receptors D3 (P35462 whole entry): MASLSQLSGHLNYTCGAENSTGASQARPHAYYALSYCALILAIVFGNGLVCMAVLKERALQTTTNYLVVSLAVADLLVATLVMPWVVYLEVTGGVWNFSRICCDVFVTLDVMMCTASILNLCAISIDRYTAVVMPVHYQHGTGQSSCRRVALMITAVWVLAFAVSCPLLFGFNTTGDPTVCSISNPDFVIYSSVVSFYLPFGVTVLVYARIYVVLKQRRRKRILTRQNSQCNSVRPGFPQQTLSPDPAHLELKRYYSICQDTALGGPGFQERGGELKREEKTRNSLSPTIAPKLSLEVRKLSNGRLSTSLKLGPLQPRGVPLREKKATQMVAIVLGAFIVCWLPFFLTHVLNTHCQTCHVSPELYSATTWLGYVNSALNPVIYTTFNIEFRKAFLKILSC
Outline: (§1)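 Scintillation read-out. Specific = total − nonspecific (excess cold ligand). Data as % of control specific binding / % inhibition; IC50 by Hill fit; Ki = IC50/(1+L/KD), KD from Scatchard plot.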

5-HT2A receptor = target: T2, 5-HT2A receptor (Homo sapiens, UniProt P28223); experiment: Radioligand binding assay, serotoninergic 5-HT2A receptors; settings: for inhibition at 1 µM / 5-HT2A [%]: binding assay result in %, Table 5a
T2 construct: purchased PerkinElmer
T2 sequence (P28223 whole entry): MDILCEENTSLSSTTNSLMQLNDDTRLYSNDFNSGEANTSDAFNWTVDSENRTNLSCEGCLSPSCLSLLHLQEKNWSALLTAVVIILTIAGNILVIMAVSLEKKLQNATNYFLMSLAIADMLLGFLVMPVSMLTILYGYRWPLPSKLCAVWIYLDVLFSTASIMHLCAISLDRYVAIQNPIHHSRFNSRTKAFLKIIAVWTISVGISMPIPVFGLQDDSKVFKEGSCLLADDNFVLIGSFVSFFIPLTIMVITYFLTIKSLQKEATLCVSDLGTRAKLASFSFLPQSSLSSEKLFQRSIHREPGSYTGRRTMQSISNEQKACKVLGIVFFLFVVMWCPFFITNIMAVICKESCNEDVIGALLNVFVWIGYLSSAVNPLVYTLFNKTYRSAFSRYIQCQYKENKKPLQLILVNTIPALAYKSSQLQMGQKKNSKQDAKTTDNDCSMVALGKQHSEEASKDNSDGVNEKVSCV
Outline: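 Competition curves from scintillation-counted specific binding (total minus binding with excess unlabelled ligand) were Hill-fitted to give IC50, converted to Ki via Cheng-Prusoff using Scatchard-derived Kd.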

α2C adrenergic receptors = target: T3, α2C adrenergic receptors (Homo sapiens, UniProt P18825); experiment: Radioligand binding assay, adrenergic α2C receptors; settings: test compound 1×10^−6 M
T3 construct: expressed in transfected cells; host or cells: CHO cells
T3 sequence (P18825 1-462): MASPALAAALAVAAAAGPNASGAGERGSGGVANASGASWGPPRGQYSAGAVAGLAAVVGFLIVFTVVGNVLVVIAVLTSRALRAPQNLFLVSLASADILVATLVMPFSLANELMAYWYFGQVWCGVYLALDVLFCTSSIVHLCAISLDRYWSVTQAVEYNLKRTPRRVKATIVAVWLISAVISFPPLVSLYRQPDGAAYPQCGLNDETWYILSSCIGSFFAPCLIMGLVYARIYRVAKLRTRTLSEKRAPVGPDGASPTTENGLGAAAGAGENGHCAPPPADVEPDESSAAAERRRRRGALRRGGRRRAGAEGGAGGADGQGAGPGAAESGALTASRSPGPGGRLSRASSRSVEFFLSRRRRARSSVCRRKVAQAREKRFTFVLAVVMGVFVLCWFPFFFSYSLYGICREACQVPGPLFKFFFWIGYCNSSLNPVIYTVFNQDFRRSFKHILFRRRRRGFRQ
Outline: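 Competitive radioligand binding at human α2C receptors, with scintillation counting. Nonspecific binding defined with excess unlabelled ligand; results given as % inhibition of control specific binding. IC50 from Hill-equation fits of competition curves; Ki via Cheng-Prusoff using radioligand concentration and Scatchard-derived KD.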

5-HT2C receptor = target: T4, 5-HT2C receptor (Homo sapiens, UniProt P28335); experiment: Radioligand binding assay, serotoninergic 5-HT2C receptors; settings: test compound 1×10^−6 M
T4 construct: expressed in transfected cells; host or cells: HEK-293 cells
T4 sequence (P28335 33-458): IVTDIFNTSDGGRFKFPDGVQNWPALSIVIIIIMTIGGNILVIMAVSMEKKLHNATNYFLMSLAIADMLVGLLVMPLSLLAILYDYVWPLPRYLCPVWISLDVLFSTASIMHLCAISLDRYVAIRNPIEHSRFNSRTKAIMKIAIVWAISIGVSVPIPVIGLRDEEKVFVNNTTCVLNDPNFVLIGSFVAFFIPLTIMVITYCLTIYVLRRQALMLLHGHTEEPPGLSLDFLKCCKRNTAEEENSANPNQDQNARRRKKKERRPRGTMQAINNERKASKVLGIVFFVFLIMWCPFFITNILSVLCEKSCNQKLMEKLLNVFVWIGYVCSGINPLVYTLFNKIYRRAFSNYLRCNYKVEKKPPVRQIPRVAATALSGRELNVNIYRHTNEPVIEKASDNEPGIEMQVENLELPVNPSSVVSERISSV

receptors D4.4 = target: T5, receptors D4.4 (Homo sapiens, UniProt P21917); experiment: Radioligand binding assay, dopaminergic D4 (D4.4) receptors; settings: test compound 1×10^−6 M
T5 sequence (P21917 1-419): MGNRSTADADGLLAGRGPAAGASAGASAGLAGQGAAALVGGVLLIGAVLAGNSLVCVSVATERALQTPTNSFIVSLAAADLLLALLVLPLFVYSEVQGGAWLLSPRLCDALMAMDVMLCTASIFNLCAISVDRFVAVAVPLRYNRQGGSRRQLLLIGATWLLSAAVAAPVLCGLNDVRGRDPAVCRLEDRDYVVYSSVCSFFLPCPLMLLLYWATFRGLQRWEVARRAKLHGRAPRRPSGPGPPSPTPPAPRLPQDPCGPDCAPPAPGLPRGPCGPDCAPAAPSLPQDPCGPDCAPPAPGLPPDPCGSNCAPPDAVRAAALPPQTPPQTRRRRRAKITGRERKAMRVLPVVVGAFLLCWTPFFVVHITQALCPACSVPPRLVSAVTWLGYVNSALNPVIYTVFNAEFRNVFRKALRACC
Outline: as §1

[3] = target: dopaminergic receptors D2 (Homo sapiens, UniProt P14416); experiment: Radioligand binding assay, dopaminergic D2 receptors; settings: for inhibition at 1 µM / D2 [%]: binding assay, test compound 1×10^−6 M
Sequence of dopaminergic receptors D2 (P14416 whole entry): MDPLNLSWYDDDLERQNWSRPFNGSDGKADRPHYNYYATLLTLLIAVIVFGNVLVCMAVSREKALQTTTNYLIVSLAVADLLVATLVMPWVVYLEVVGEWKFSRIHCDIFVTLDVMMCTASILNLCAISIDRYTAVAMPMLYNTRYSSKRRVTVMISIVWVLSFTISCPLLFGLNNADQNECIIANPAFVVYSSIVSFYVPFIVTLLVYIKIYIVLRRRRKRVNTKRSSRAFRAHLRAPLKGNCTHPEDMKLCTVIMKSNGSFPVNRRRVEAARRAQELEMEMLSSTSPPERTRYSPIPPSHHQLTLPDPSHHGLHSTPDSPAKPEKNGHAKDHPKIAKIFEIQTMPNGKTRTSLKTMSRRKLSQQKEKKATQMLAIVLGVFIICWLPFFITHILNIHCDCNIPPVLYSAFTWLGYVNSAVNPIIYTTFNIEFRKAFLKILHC
Outline: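 Ki from Cheng–Prusoff conversion of Hill-fitted IC50 values, using the assay radioligand concentration and a Scatchard-determined KD. Specific binding, scintillation-counted, excluded signal remaining under excess unlabelled ligand.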

5-HT6 receptor = target: T6, 5-HT6 receptor (Homo sapiens, UniProt P50406); experiment: Radioligand binding assay, serotoninergic 5-HT6 receptors; settings: for inhibition at 1 µM / 5-HT6 [%]: binding assay result in %, Table 5a
T6 construct: purchased PerkinElmer
T6 sequence (P50406 whole entry): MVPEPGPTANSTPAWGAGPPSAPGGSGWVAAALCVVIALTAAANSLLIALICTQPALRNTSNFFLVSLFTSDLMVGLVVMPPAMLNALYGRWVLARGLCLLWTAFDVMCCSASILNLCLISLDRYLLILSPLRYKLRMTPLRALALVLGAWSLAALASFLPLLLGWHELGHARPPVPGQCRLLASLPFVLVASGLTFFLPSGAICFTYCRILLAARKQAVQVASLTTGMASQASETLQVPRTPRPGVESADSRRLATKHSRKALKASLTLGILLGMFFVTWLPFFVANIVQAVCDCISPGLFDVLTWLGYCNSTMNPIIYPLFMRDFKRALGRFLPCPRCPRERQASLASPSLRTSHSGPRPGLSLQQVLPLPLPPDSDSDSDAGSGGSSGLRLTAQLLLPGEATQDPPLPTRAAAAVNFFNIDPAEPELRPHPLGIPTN
Outline: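 Values are Ki from Cheng–Prusoff, taking IC50 from Hill nonlinear regression of competition curves and KD from a Scatchard plot. Specific binding was total minus binding with excess unlabelled ligand. Radioligand displacement was detected by scintillation counting, and data were also reported as percent of control specific binding.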

H1 [%] [1] | D3 [%] [2] | 5-HT2A [%] (5-HT2A receptor) | α2C [%] (α2C adrenergic receptors) | 5-HT2C [%] (5-HT2C receptor) | D4.4 [%] (receptors D4.4) | D2 [%] [3] | 5-HT6 [%] (5-HT6 receptor) | SMILES | inhibition at 1 µM [1] | inhibition at 1 µM [2] | inhibition at 1 µM (5-HT2A receptor) | inhibition at 1 µM (α2C adrenergic receptors) | inhibition at 1 µM (5-HT2C receptor) | inhibition at 1 µM (receptors D4.4) | inhibition at 1 µM [3] | inhibition at 1 µM (5-HT6 receptor) | pKi (5-HT2A receptor; read-out: Inhibition constants Ki, 5-HT2A) | pKi ([3]; read-out: Inhibition constants Ki for D2 receptors, D2) | pKi (5-HT6 receptor; read-out: Inhibition constants Ki, 5-HT6)
– | – | – | – | – | – | – | – | O=S(=O)(NCC1CCN(CCOc2cccc3c2OCCO3)C1)c1ccc(C(F)(F)F)cc1 (stereo not drawn) [Compound 293, N-[[1-[2-(2,3-Dihydro-1,4-benzodioxin-5-yloxy)ethyl]pyrrolidin-3-yl]methyl]-4-(trifluoromethyl)benzenesulphonamide] | 38% | 60% | 86% | 95% | 50% | 35% | 66% | 47% | – | – | –
34% | 75% | 72% | 84% | 50% | 39% | 78% | 29% | Cc1cccc(S(=O)(=O)NC2CN(CCOc3cccc4c3OCCO4)C2)c1 [Compound 93, N-[1-[2-(2,3-Dihydro-1,4-benzodioxan-8-yloxy)ethyl]azetidin-3-yl]-3-methyl-benzenesulphonamide] | – | – | – | – | – | – | – | – | – | – | –
– | – | – | – | – | – | – | – | O=S(=O)(NC1CCN(CCCc2noc3cc(F)ccc23)C1)c1cccc2ccccc12 (stereo not drawn) [Compound 20, N-[1-[3-(6-Fluoro-1,2-benzoxazol-3-yl)propyl]pyrrolidin-3-yl]naphthalene-1-sulphonamide] | 36% | 69% | 100% | 78% | 33% | 100% | 95% | 97% | – | – | –
3% | 23% | 74% | 69% | 53% | 22% | 24% | 19% | O=S(=O)(NC1CN(CCOc2cccc3c2OCCO3)C1)c1cccc(F)c1 [Compound 89, N-[1-[2-(2,3-Dihydro-1,4-benzodioxan-8-yloxy)ethyl]azetidin-3-yl]-3-fluoro-benzenesulphonamide] | – | – | – | – | – | – | – | – | – | – | –
– | – | – | – | – | – | – | – | O=S(=O)(N[C@H]1CCN(CCCc2noc3cc(F)ccc23)C1)c1cc2ccccc2s1 [Compound 197, N-[(3S)-1-[3-(6-Fluoro-1,2-benzoxazol-3-yl)propyl]pyrrolidin-3-yl]benzo-thiophene-2-sulphonamide] | 76% | 83% | 99% | 90% | 84% | 81% | 101% | 97% | 9.15 | 8.24 | 7.80
– | – | – | – | – | – | – | – | O=S(=O)(NCC1CCN(CCOc2cccc3c2OCCO3)C1)c1cccc(F)c1 (stereo not drawn) [Compound 298, N-[[1-[2-(2,3-Dihydro-1,4-benzodioxin-5-yloxy)ethyl]pyrrolidin-3-yl]-methyl]-3-fluoro-benzenesulphonamide] | 40% | 35% | 88% | 94% | 37% | 48% | 52% | 40% | – | – | –
